The source of these data is ChEMBL document CHEMBL3507680, “University of Dundee, Gates Library screen for HepG2 cell viability”.

SMILES strings stand for the structures.

The nature of the data set: Human HepG2 cell viability assay in 384 well format. In kind it is toxicity, cell-based. More on the design: dose 125 nL, time 70.5 hour; concentration not given beside the values. The conditions noted are these: HepG2 cells, read-out: Inhibition.

With `CSc1nccc(NCc2cc3n(n2)CCCN(C(=O)C2CCC2)C3)n1`, the cytotoxicity at 70.5 h came out at 22.4%.

As for `O=C(CN1CCOC1=O)N1CCc2nnc(-c3ccccc3)n2CC1`, the cytotoxicity at 70.5 h came to 11.7%.

In the case of `CC(C)C1CN(C(=O)c2ccc(Cl)cn2)CCCN1CC1CC1` (centres undefined), the cytotoxicity at 70.5 h is -6.77%.

In the case of `CNS(=O)(=O)CCNc1cc(C)nc2cc(C)nn12`, the cytotoxicity at 70.5 h is -2.52%.

As to `COCCCN1C(=O)CC[C@H]2CN(c3nc4ccccc4s3)CC[C@H]21`, the cytotoxicity at 70.5 h is -3.23%.

On to `Cc1ccc(N2CCN(C(=O)CCc3n[nH]c(C)n3)CC2=O)cc1`, for which the cytotoxicity at 70.5 h was -8.56%.

As to `CN(Cc1cc(C2CC2)[nH]n1)C(=O)C(c1cccnc1)N1CCCC1` (centres undefined), the cytotoxicity at 70.5 h is -3.32%.

In the case of `COc1ncc(CN2CCC3(CCCN(CC4CCC4)C3)C2)cn1` (centres undefined), the cytotoxicity at 70.5 h is -1.38%.

`CN(C)CCN(CC1CCCO1)S(=O)(=O)NCc1ccccc1` (centres undefined): the cytotoxicity at 70.5 h was -6.41%.

Take `Cn1ccnc1-c1ccc(NC[C@H]2CCc3ccccc3O2)nn1`: the cytotoxicity at 70.5 h is 18%.

Take `Cc1nc2c(c(NCC(O)C(F)(F)F)n1)CCNCC2` (centres undefined): the cytotoxicity at 70.5 h stood at 11.7%.

As to `CC(C)OC(=O)N1CCC(c2nnc(Cn3ccnc3)n2C)CC1`, the cytotoxicity at 70.5 h amounted to 20.7%.

As for `CCN1CC(CN(C)Cc2nc(-c3ccc(F)cc3F)oc2C)CC1=O` (centres undefined), the cytotoxicity at 70.5 h was found to be 2.47%.

In the case of `OC1(CN2CCCC2)COCCN(c2noc(-c3ccccc3)n2)C1` (centres undefined), the cytotoxicity at 70.5 h is -11%.

Turning to `COC(=O)CC1C(=O)NCCN1c1nc2c(s1)c(C)nn2C` (centres undefined), the cytotoxicity at 70.5 h is 5.02%.

Turning to `Cc1cc(N2CCC(n3cc(CN4CCNCC4)nn3)CC2)ccn1`, the cytotoxicity at 70.5 h came out at 24.4%.

With `COCCc1ncc(CN2CCCC(C(=O)c3ccccc3)C2)cn1` (centres undefined), the cytotoxicity at 70.5 h is -26%.

As to `CCOCc1nc2c(c(NC(CC)c3ccnn3C)n1)CCNCC2` (centres undefined), the cytotoxicity at 70.5 h came to 0.295%.

Consider `Cc1ccc(CCNC(=O)CC2COCCN2S(=O)(=O)N(C)C)o1` (centres undefined), for which the cytotoxicity at 70.5 h came to 13.5%.

Consider `CN1CCN(S(=O)(=O)NCC2COc3ccccc3C2)CC1` (centres undefined), for which the cytotoxicity at 70.5 h is -3.52%.

On to `COc1ccc(CCN2CC(NCc3ncc[nH]3)CC2=O)cc1` (centres undefined), for which the cytotoxicity at 70.5 h was -7.01%.

For the compound `O[C@@]1(CN2CCN(Cc3ccncc3)CC2)CCCN2CCCC[C@@H]21`, the cytotoxicity at 70.5 h was -9.72%.

As to `COc1cccc2c(=O)n(C3CCCNC3)cnc12` (centres undefined), the cytotoxicity at 70.5 h is -11.4%.

`Cc1nc(C2CCN(C(=O)c3ccc(Cl)s3)CC2)cc(=O)[nH]1`: the cytotoxicity at 70.5 h was -6.29%.

As for `COc1ccc(C[C@@H]2CC[C@H](CN(C)C3CCN(C)CC3)O2)cc1`, the cytotoxicity at 70.5 h was -5.62%.

Turning to `COc1cccc(OCCc2nc3c(cc2C(N)=O)CCC3)c1`, the cytotoxicity at 70.5 h was determined as 1.85%.

For the compound `CSc1ccccc1CC1CCCS(=O)(=O)C1` (centres undefined), the cytotoxicity at 70.5 h came out at 3.79%.

Consider `Cc1nonc1C1CCCN1C(=O)c1cn2ccsc2n1` (centres undefined), for which the cytotoxicity at 70.5 h was -13.5%.

`c1cn(CCn2cnnc2)c(-c2cc3n(n2)CCCNC3)n1`: the cytotoxicity at 70.5 h is -5.64%.

`CC(=O)c1cc(CN2C[C@@H](CN3CCCC3)[C@@H](CO)C2)n(C)c1`: the cytotoxicity at 70.5 h was -5.11%.

On to `COCCc1nc(CN2CC(C)(c3ccccc3)CCC2=O)no1` (centres undefined), for which the cytotoxicity at 70.5 h is -2.58%.

Take `COc1ccc(-n2c(CO)nc3ccccc32)cc1CO`: the cytotoxicity at 70.5 h was -6.11%.

With `COc1cc(F)ccc1-c1cc(N)ccn1`, the cytotoxicity at 70.5 h was -0.436%.

For the compound `CNc1cc(-c2ccc(COCCN)cc2)c2cc[nH]c2n1`, the cytotoxicity at 70.5 h was -13.6%.

For the compound `C[C@@H]1CN(Cc2nc(C(N)=O)no2)CC[C@@]1(O)C1CC1`, the cytotoxicity at 70.5 h was -14.8%.

`CCc1cc(NCCN2CCNC2=O)n2nccc2n1`: the cytotoxicity at 70.5 h turned out to be 3.72%.

In the case of `OCCC1CN(c2ncnc3[nH]cnc23)CCN1Cc1ccccc1F` (centres undefined), the cytotoxicity at 70.5 h amounted to 5.32%.

With `COc1ccc(C(=O)N2C[C@@H](NC(=O)N(C)C)[C@H](C(C)C)C2)c(OC)n1`, the cytotoxicity at 70.5 h was -11.2%.

As for `CN(CCC(C)(C)O)C(=O)C1CCC(=O)N(Cc2ccc(Cl)cc2)C1` (centres undefined), the cytotoxicity at 70.5 h is -5.36%.

In the case of `CCCOCC1CCN(C(=O)c2cnc(-c3cccnc3)nc2O)C1` (centres undefined), the cytotoxicity at 70.5 h was -6.25%.

Consider `CCc1nc(C)c([C@H]2CN(C)C[C@@H]2C(=O)Nc2ccc3[nH]ncc3c2)[nH]1`, for which the cytotoxicity at 70.5 h is -5.87%.

On to `COCCN1CCC(CN(C)c2nc3c(s2)c(C)nn3C)C1` (centres undefined), for which the cytotoxicity at 70.5 h is -3.25%.

As to `CC(=O)C1(c2ccccc2)CCN(C(=O)c2ccn3nnnc3c2)CC1`, the cytotoxicity at 70.5 h was -13.3%.

On to `CC(Cc1cn(CCc2n[nH]c(=O)[nH]2)nn1)c1ccccc1` (centres undefined), for which the cytotoxicity at 70.5 h was -7.35%.

For the compound `CO[C@H]1CN(C(C)C)C[C@@H]1NC(=O)Nc1cccc(SC)c1`, the cytotoxicity at 70.5 h worked out at 49.1%.

Regarding `N#Cc1cccc(N2CCC3(CCC(=O)N(CC4CCCO4)C3)CC2)n1` (centres undefined), the cytotoxicity at 70.5 h came out at 0.613%.

Regarding `Nc1cnc(-c2cccc3c2CCNC3)cn1`, the cytotoxicity at 70.5 h is -15.3%.

On to `O=C(NC[C@H]1CCCO1)c1ccc(S(=O)(=O)N2C[C@@H]3C[C@H]2CN3)cc1`, for which the cytotoxicity at 70.5 h is -1.62%.

In the case of `CCN(CCn1c(=O)oc2ccccc21)CC1CCOCC1`, the cytotoxicity at 70.5 h was -2.32%.

Take `O=C(CCn1cnnn1)N1CCCC(CO)(CCc2ccccc2)C1` (centres undefined): the cytotoxicity at 70.5 h turned out to be 18%.

For the compound `O=C1NCC2(CCCN(C(=O)Cn3nc4ccccc4n3)CC2)O1` (centres undefined), the cytotoxicity at 70.5 h was 29.9%.

Regarding `CCc1cnc(N)nc1N1CCN(C(C)=O)CC1`, the cytotoxicity at 70.5 h was -15.8%.

On to `CN(Cc1ccccc1)c1ncccc1CNC1CCSCC1`, for which the cytotoxicity at 70.5 h was -2.31%.

For `COCCC1(C(=O)O)CCCN(CCc2ccccc2)C1` (centres undefined), the cytotoxicity at 70.5 h is -7.32%.

With `CCN1CCC(CC(=O)N(C)CC(=O)c2ccc(O)cc2)CC1`, the cytotoxicity at 70.5 h is -8.66%.

As to `COCCN(CC1CCCN(C2Cc3ccccc3C2)C1)C(=O)CO` (centres undefined), the cytotoxicity at 70.5 h was -10%.

In the case of `CC(CN(C)Cc1cccc(-n2cccn2)c1)C(F)(F)F` (centres undefined), the cytotoxicity at 70.5 h was -1.16%.

For `Cc1ccc(-c2ccnc(N(C)CC3CCCO3)n2)c(C)n1` (centres undefined), the cytotoxicity at 70.5 h is -6.23%.

On to `CC(=O)Nc1ncc(S(=O)(=O)N2CCN(C3CCCCC3)CC2)s1`, for which the cytotoxicity at 70.5 h was -5.13%.

On to `CC(C)O[C@H]1CN(Cc2cnc3c(-c4ccccc4)cnn3c2)C[C@@H]1O`, for which the cytotoxicity at 70.5 h is -5.99%.

Take `CC1CCN(CCCNS(=O)(=O)Cc2ccccc2F)CC1`: the cytotoxicity at 70.5 h worked out at 1.01%.

In the case of `CCN(CC)c1ccc(-c2ccc(C)c(S(N)(=O)=O)c2)nn1`, the cytotoxicity at 70.5 h is -8.22%.

`CCn1nc(C)c(CN(CCOC)C(=O)c2ccccc2N(C)C)c1C`: the cytotoxicity at 70.5 h was -2.9%.

With `CCc1cccc(OCCCN(C)C(=O)CN2CCNC2=O)c1`, the cytotoxicity at 70.5 h amounted to 0.78%.

Consider `O=S(=O)(Cc1ccccc1Cl)NCCCN1CCCC1`, for which the cytotoxicity at 70.5 h was -5.39%.

Turning to `CCc1[nH]c2c(CNc3cnccn3)cc(F)cc2c1C`, the cytotoxicity at 70.5 h was -2.66%.

As to `CCCc1cnc(C)nc1N1CCC(F)(F)CC1`, the cytotoxicity at 70.5 h was -9.65%.

`Cc1sc2nc(CCN)nc(N3CC(N4CCCCC4)C3)c2c1C`: the cytotoxicity at 70.5 h was determined as 26%.

For `Cc1nc(NCc2ccc(C)o2)cc(C2CCNCC2)n1`, the cytotoxicity at 70.5 h was -23.6%.

For `Nc1ccnc(C(=O)N2CCCC3(CCC(=O)N(C4CCCC4)C3)C2)c1` (centres undefined), the cytotoxicity at 70.5 h is -7.4%.

As for `Cc1ccccc1N1CCN(c2cc(N(C)C)ncn2)C(C)C1` (centres undefined), the cytotoxicity at 70.5 h was -9.42%.

Regarding `CCC(=O)Nc1cccc(OCC(=O)N(C)CCCC2CCCO2)c1` (centres undefined), the cytotoxicity at 70.5 h was -3.54%.

For the compound `Cc1ccc(C)c(OC(C)C(=O)NCc2cccnc2)c1` (centres undefined), the cytotoxicity at 70.5 h is -5.32%.

On to `CCC(C(=O)NCc1ccncc1)N(c1ccccc1)S(C)(=O)=O` (centres undefined), for which the cytotoxicity at 70.5 h is -3.1%.

Turning to `CCCNC(=O)c1cc(OC)c(OC)cc1N(C)S(C)(=O)=O`, the cytotoxicity at 70.5 h was -8.53%.

`COc1ccc(OCC(C)NS(C)(=O)=O)cc1` (centres undefined): the cytotoxicity at 70.5 h is -3.53%.

As to `O=C(N[C@@H]1CCN(Cc2cccc3nonc23)C[C@H]1O)c1cccnc1`, the cytotoxicity at 70.5 h is -13.7%.

Take `COC(=O)C1CCN(C(=O)c2cccc(NS(C)(=O)=O)c2C)CC1`: the cytotoxicity at 70.5 h is -7.56%.

As to `CN(C)Cc1cn(CC2CCCN(c3nccc4occc34)C2)nn1` (centres undefined), the cytotoxicity at 70.5 h was -14.2%.

In the case of `O=c1[nH]c(COc2ccccc2Cl)nc2c1CCNC2`, the cytotoxicity at 70.5 h is -4.85%.

On to `c1cnc(N2CCN(CCn3ccnc3-c3c[nH]cn3)CC2)nc1`, for which the cytotoxicity at 70.5 h was -6.35%.

For `Cc1ccc(-c2noc(CCC3CCN(C)CC3)n2)nn1`, the cytotoxicity at 70.5 h is -5.24%.

Take `CCC[C@H]1CN(c2nccc(NCC)n2)C[C@@H]1NS(=O)(=O)N(C)C`: the cytotoxicity at 70.5 h was -7.09%.

Consider `COc1nccnc1N1CCCC2(C1)C(=O)N(C)c1ccccc12` (centres undefined), for which the cytotoxicity at 70.5 h was -12.3%.

On to `COCC(=O)N1Cc2c(-c3cccc(C)c3)nc(N)nc2C1C` (centres undefined), for which the cytotoxicity at 70.5 h is -9.82%.

Take `O=c1c2ccc(C(F)(F)F)cc2ncn1CCCN1CCCCC1CO` (centres undefined): the cytotoxicity at 70.5 h stood at 14.6%.

With `Cc1ncc(CNC2CC(=O)N(CCc3cccc(Cl)c3)C2)n1C` (centres undefined), the cytotoxicity at 70.5 h was -9.98%.

As for `CNC(=O)c1cccnc1N1CCN(Cc2ccccc2)C(CCO)C1` (centres undefined), the cytotoxicity at 70.5 h is -14.9%.

Take `Cc1nn2c(N3CCCC(C#N)C3)cc(-c3ccccc3)nc2c1C` (centres undefined): the cytotoxicity at 70.5 h was found to be 1.82%.

Consider `CNC(=O)c1sccc1S(=O)(=O)NC`, for which the cytotoxicity at 70.5 h was -6.63%.

Turning to `Cc1nc(O)cc(CCNC(=O)CC[C@@H]2CCCN3CCCC[C@H]23)n1`, the cytotoxicity at 70.5 h is -9.84%.

Consider `CC1CCN(C(=O)c2cccc(CN3CCOCC3)c2)CC1`, for which the cytotoxicity at 70.5 h is -5.87%.

With `CN1CCN(C(=O)c2cccc(CN3CCOCC3)c2)CC1`, the cytotoxicity at 70.5 h is -2.6%.

For `Nc1cc(N2CCC(c3cc(Cc4ccccc4)n[nH]3)CC2)ccn1`, the cytotoxicity at 70.5 h came to 2.05%.

Consider `COc1ccc(SC(C)C(=O)N2CCC(C(N)=O)CC2)cc1` (centres undefined), for which the cytotoxicity at 70.5 h is -14.1%.

Regarding `CN(CCCO)C(=O)c1ccc2c(c1)nc(N1CC[C@H](O)C1)n2C`, the cytotoxicity at 70.5 h was -7.06%.

For `Cc1nnc(-c2cccc(N3CCC(NC4CCSC4)CC3)c2)s1` (centres undefined), the cytotoxicity at 70.5 h is 4.71%.

Turning to `CN1C[C@@H](n2cnc(-c3ccccc3)c2-c2c[nH]cn2)C[C@H]1C(=O)O`, the cytotoxicity at 70.5 h is -7.26%.

Turning to `COc1cc(CNCc2ccco2)ccc1OCCO`, the cytotoxicity at 70.5 h is -5.33%.
